# Measurements from patent US10272110B2, “Methods for promoting HSC engraftment” (CHILDREN'S MEDICAL CENTER CORPORATION, priority 2006, dated 2019).
# “Also recorded” adds a separate entry of the source.
# What was measured:
# [1] = system: runx1/cmyb+ AGM HSCs; experiment: Morpholino knockdown and dmPGE2 rescue of AGM HSCs; type: in vivo, zebrafish
# Protocol: PGE2 signals through several receptors, EP1-4, all of which are present in the zebrafish genome. Cha et al., 20 Genet. Devel.
# For rescue experiments, 3-somite stage MO-injected embryos were exposed to 10 μM dmPGE2.
# [2] = system: wnt activity; experiment: wnt reporter TOP:dGFP zebrafish embryos; type: in vivo; settings: vs control
# Description: Clinical experience in patients with APC mutations has shown that inhibition of prostaglandin synthesis results in decreased wnt mediated polyp formation. […] These interactions were examined in vivo using a wnt reporter zebrafish transgenic line, TOP:dGFP. At fifty-percent epiboly, embryos were subjected either to nothing (control), indomethacin, or PGE2, and the amount of wnt signaling activated in the embryo assessed by GFP induction driven from the wnt binding site. Analysis of alterations in GFP expression in the head was analyzed by in situ hybridization. […] FIG. 12.
# [3] = system: cmyb/lmo2+ HSCs; experiment: Confocal quantification of HSCs in cmyb:GFP x lmo2:dsRed bigenic embryos; type: in vivo, zebrafish
# Protocol: A long-acting derivative, 16,16-dimethyl-PGE2 (dmPGE2, 10 μM) caused an increase in runx1/cmyb+ AGM HSCs in 78% of embryos examined (97/124). AGM HSCs were inhibited by indomethacin (10 μM) treatment in 90% of embryos analyzed (92/102). […] Transgenic cmyb:GFP zebrafish with green fluorescent HSCs and myeloid progenitor cells were crossed to lmo2:dsRed fish that have red fluorescent endothelial cells and HSCs to visualize the effects of chemical exposure in vivo. […] FIG. 3.
# Live 36 hpf treated bigenic zebrafish embryos were embedded in 1% low-melting point agarose containing 0.4 mg/ml Tricaine-S for confocal imaging. cmyb-GFP transgenic reporter lines were created from a BAC containing the cmyb promoter genomic sequence (Galloway, Zhu, Lin, Zon, unpublished); lmo2:DsRed fish were created as described^27. For HSC quantification, cmyb/lmo2+ positive cells were counted in projections of z-stack images (n=10/treatment).
# [4] = system: runx1/cmyb+ AGM HSCs; experiment: Heat shock wnt-pathway transgenic embryos treated with PG drugs: AGM HSC formation; type: in vivo, zebrafish
# Protocol: More specifically, Wnt signaling through its main transcriptional mediator β-catenin plays an important role in controlling tissue patterning, cell fate decisions, and proliferation in many embryonic contexts, including the development and differentiation of organs. […] Whether wnt signaling has a role during HSC formation in zebrafish was determined using heat shock inducible activators and repressors of the wnt pathway. Briefly, wnt-inducible embryos were harvested and heat shocked for twenty minutes at 38° C. Genotypes were sorted by GFP expression, and the AGM HSCs analyzed by runx1/cmyb expression in situ. […] This is the first evidence in any organism that wnt signaling is required for AGM HSC formation.
# Additionally, indomethacin and dmPGE2 was used to investigate the interaction of the wnt and prostaglandin pathways during HSC development and in marrow recovery following injury. FIG. 13 reflects the potential points of interaction of the PG and wnt pathways. […] Furthermore, dmPGE2 can rescue the inhibitory effects of dkk activation on AGM HSC formation at 36 hpf, as shown by in situ hybridization for runx1/cmyb.
# [5] = system: AGM HSCs; experiment: Rescue of AGM HSCs in the mindbomb mutant; type: in vivo, zebrafish; settings: preliminary studies
# Description: The mutant mindbomb lacks an E3 ubiquitin ligase for delta, the ligand of notch receptors. As such, mindbomb mutants completely lack notch signaling, and fail to make any hematopoietic stem cells in the AGM. Itoh et al., 4 Devel. Cell 67-82 (2003). Overexpression of runx1 rescues the number of c−myb positive cells in the AGM in mindbomb. This implies that runx is an important target of notch. […] This may be due to a defect in the ability of the cells to respond to prostaglandin E2; notch signaling is likely to be required earlier in the development of the AGM region than prostaglandin E2. Dose response curves with prostaglandin E2 in the mindbomb mutant may shed light on this. Conversely, Notch ICD embryos that have increased stem cell number by 36 hpf may be incubated with Cox inhibitors to see if prostaglandin signaling has a role in mediating AGM HSC upregulation. Other hematopoietic mutants may be studied similarly.
# [6] = system: runx1, cmyb expression; experiment: qPCR of HSC gene expression in treated zebrafish embryos; type: in vivo
# [7] = system: kidney marrow (KM) hematopoietic lineages; experiment: Kidney marrow irradiation recovery assay in adult zebrafish; settings: 50 μM vs DMSO, sublethally irradiated adult zebrafish
# Description: Wild-type fish were sublethally irradiated, exposed to dmPGE2, and evaluated for kinetics of KM recovery by FACS 11 (FIG. 4A).
# Adult zebrafish were exposed to 23 Gy of γ-irradiation. […] Whole KM isolated on days 0, 2, 4, 7, 10, 14 was subjected to FSC/SSC FACS analysis to identify hematopoietic lineages (n=5/treatment×3 replicates).
# [8] = system: runx1/cmyb+ AGM HSCs; settings: 10 μM
# Protocol: A chemical genetic screen was conducted to identify novel pathways that modulate definitive HSC formation during zebrafish embryogenesis. FIG. 1. Genes such as runx1 and cmyb, required for HSC development during mammalian hematopoiesis, are expressed in the ventral wall of the dorsal aorta in a region analogous to the mammalian AGM at thirty-six hours post-fertilization (hpf). […] Wild-type embryos were incubated with individual compounds from the three-somite stage until thirty-six hpf. Probes for runx1 and cmyb were combined and utilized to detect HSCs by in situ hybridization.
# Wild-type age-matched embryos were arrayed into 48-well plates (˜5 embryos/well) of individual test compounds and exposed from 3-somites until 36 hpf. […] In situ hybridization for runx1 and cmyb was performed to assess HSCs. Compounds were retested at 10 μM, 20 μM, and 50 μM. Stem cell specificity was assessed using flk1 at 36 hpf. PGE2, PGI2, dmPGE2 and all cox inhibitors (Sigma) were used at 10 μM to 20 μM.
# Qualitative scoring (# embryos with altered HSCs/# scored) of runx1/cmyb was conducted using the following criteria: Normal/unchanged=continuous line of runx1/cmyb+ endothelial cells and occasional hematopoietic clusters. Decreased/absent=reduction in runx1/cmyb+ cells, including the presence of large gaps in the line of HSCs, isolated positive cells, or absence of expression. Increased/excess=enhancement in runx1/cmyb^+ cells, including many HSC clusters, a thickened line of HSCs, or ectopic expression.
compound,measurement,setting,value
"CCCCC(C)(C)[C@H](O)/C=C/[C@H]1[C@H](O)CC(=O)[C@@H]1C/C=C\CCCC(=O)O [dmPGE2, 16,16-dimethyl-PGE2]",rescue of HSCs in cox1 MO embryos (# rescued/# scored),[1]; 10 μM dmPGE2,29/52
same,rescue of HSCs in cox2 MO embryos (# rescued/# scored),[1]; 10 μM dmPGE2,43/60
same,rescue of HSCs in PGE2 synthase MO embryos (# rescued/# scored),[1]; dmPGE2 addition,25/45
same,reversal of diminished runx1/cmyb expression in EP2 and EP4 MO embryos,[1]; exogenous dmPGE2,not reversed
same,wnt activity (GFP expression) in TOP:dGFP embryos,[2],enhance wnt signaling
same,HSC numbers by confocal microscopy (mean±SD),"[3]; 10 μM, bigenic embryos, n=10/treatment, DMSO 23.3±5.0",38.0±2.2
same,HSC numbers along the floor of the aorta by confocal microscopy (in words),[3]; 36 hpf live embryos,significantly increased HSCs
same,rescue of inhibited AGM HSC formation under wnt repression (dkk activation),"[4]; 36 hpf, runx1/cmyb in situ hybridization",partially rescued; also recorded: can rescue
same,rescue of HSC formation in embryos over-expressing dnTCF,[4]; preliminary results,not sufficient
same,rescue of the mindbomb mutant,[5],failed to demonstrate any type of rescue
same,cmyb expression by qPCR (in words),[6]; 10 μM,significant alterations
same,"runx1 expression by qPCR, enhancement",[6]; dmPGE2 10 μM,3 fold
same,rate of hematopoietic reconstitution of the KM,[7],significantly enhanced
same,embryos with increase in runx1/cmyb+ AGM HSCs,[8],78%
same,increased runx1/cmyb+ HSCs (# embryos altered/# scored),[8]; 36 hpf,97/124
